This is an account of results in patent publication US10722501B2 (BAYER AKTIENGESELLSCHAFT, priority 2016, dated 2020).

The experiment deals with T1, recombinant full-length human prolyl endopeptidase (PREP) (Homo sapiens, UniProt P48147).
T1 construct: To recombinant full-length human prolyl endopeptidase (PREP, R&D-Systems, 4308-SE); purchased R&D-Systems 4308-SE
T1 sequence (P48147 1-710): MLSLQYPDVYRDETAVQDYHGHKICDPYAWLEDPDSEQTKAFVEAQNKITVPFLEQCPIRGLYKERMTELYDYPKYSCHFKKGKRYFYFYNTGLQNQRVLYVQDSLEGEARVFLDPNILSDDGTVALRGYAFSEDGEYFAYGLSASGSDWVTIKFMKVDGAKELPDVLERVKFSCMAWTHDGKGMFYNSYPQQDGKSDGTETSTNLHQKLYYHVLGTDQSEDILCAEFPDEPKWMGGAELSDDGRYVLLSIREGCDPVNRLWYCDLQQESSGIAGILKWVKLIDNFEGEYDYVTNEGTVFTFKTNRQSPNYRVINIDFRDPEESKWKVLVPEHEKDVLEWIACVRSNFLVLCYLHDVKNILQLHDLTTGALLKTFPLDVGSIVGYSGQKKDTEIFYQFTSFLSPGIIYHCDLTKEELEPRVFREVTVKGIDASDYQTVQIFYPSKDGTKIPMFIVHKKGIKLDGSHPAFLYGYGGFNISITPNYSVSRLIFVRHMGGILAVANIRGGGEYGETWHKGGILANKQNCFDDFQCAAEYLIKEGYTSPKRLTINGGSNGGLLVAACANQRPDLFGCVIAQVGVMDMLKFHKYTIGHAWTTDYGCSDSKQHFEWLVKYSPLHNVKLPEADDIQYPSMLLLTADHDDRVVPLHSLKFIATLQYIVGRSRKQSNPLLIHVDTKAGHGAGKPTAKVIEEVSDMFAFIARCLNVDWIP
Description: Biochemical human prolyl endopeptidase (PREP) assay with fluorescently labelled substrate. Conditions: substrate Z-Gly-Pro-AMC 50 μM, 32° C., 60 min; some as mean values from multiple independent determinations. The method, boiled down: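 Initial rates of fluorescence increase from 50 μM Z-Gly-Pro-AMC cleavage (ex 360/em 465 nm, 60 min, 32° C) give percent PREP activity versus no-compound control, and IC50 is interpolated. Enzyme used at 0.4 nM (final, example) in Tris pH 7.5 with EDTA, GSH, BSA and Brij-35; compounds span 1 nM to 30 μM.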
For the molecule `O=C(C1CCCc2nn(Cc3ncc(C(F)(F)F)cc3Cl)c(=O)n21)N1CCCC1` (racemic) [Example 68, (5RS)-2-{[3-Chloro-5-(trifluoromethyl)pyridin-2-yl]methyl}-5-(pyrrolidin-1-ylcarbonyl)-5,6,7,8-tetrahydro[1,2,4]triazolo[4,3-a]pyridin-3(2H)-one], the IC50 was determined as 3.9 nM.
Turning to `O=C(C1CCCc2nn(Cc3noc(-c4cccc(C(F)(F)F)c4)n3)c(=O)n21)N1CCCC1` (racemic) [Example 69, (5RS)-5-(Pyrrolidin-1-ylcarbonyl)-2-({5-[3-(trifluoromethyl)phenyl]-1,2,4-oxadiazol-3-yl}methyl)-5,6,7,8-tetrahydro[1,2,4]triazolo[4,3-a]pyridin-3(2H)-one], the IC50 turned out to be 210 nM.
With `CCn1ccnc1Cn1nc2n(c1=O)C(C(=O)N1CCCC1)CCC2` (racemic) [Example 70, (5RS)-2-[(1-Ethyl-1H-imidazol-2-yl)methyl]-5-(pyrrolidin-1-ylcarbonyl)-5,6,7,8-tetrahydro[1,2,4]triazolo[4,3-a]pyridin-3(2H)-one], the IC50 was 11 nM.
For the molecule `O=C(C1CCCc2nn(Cc3cccc(C(F)(F)F)c3F)c(=O)n21)N1CCCC1` (racemic) [Example 71], the IC50 was 0.71 nM.
As to `O=C(C1CCCc2nn(Cc3cc(F)cc(C(F)(F)F)c3)c(=O)n21)N1CCCC1` (racemic) [Example 72], the IC50 is 0.83 nM.
`O=C(C1CCCc2nn(Cc3ccc(OC(F)(F)F)c(Cl)c3)c(=O)n21)N1CCCC1` (racemic) [Example 73, (5RS)-2-[3-Chloro-4-(trifluoromethoxy)benzyl]-5-(pyrrolidin-1-ylcarbonyl)-5,6,7,8-tetrahydro[1,2,4]triazolo[4,3-a]pyridin-3(2H)-one]: the IC50 stood at 1.5 nM.
As to `Cc1nc(C(F)(F)F)c(Cn2nc3n(c2=O)C(C(=O)N2CCCC2)CCC3)s1` (racemic) [Example 77, (5RS)-2-{[2-Methyl-4-(trifluoromethyl)-1,3-thiazol-5-yl]methyl}-5-(pyrrolidin-1-ylcarbonyl)-5,6,7,8-tetrahydro[1,2,4]triazolo[4,3-a]pyridin-3(2H)-one], the IC50 stood at 4.8 nM.
Take `O=C(C1CCCc2nn(Cc3ccc(Cl)cn3)c(=O)n21)N1CCC(F)(F)C1` (racemic) [Example 78, (5RS)-2-[(5-Chloropyridin-2-yl)methyl]-5-[(3,3-difluoropyrrolidin-1-yl)carbonyl]-5,6,7,8-tetrahydro[1,2,4]triazolo[4,3-a]pyridin-3(2H)-one]: the IC50 came out at 6 nM.
Take `O=C(C1CCCc2nn(Cc3ccc(C(F)(F)F)nc3)c(=O)n21)N1CCC(F)(F)C1` (racemic) [Example 79, (5RS)-5-[(3,3-Difluoropyrrolidin-1-yl)carbonyl]-2-{[6-(trifluoromethyl)pyridin-3-yl]methyl}-5,6,7,8-tetrahydro[1,2,4]triazolo[4,3-a]pyridin-3(2H)-one]: the IC50 was determined as 6.7 nM.
For the molecule `O=C(C1CCCc2nn(Cc3ccc(Cl)nc3)c(=O)n21)N1CCC(F)(F)C1` (racemic) [Example 80, (5RS)-2-[(6-Chloropyridin-3-yl)methyl]-5-[(3,3-difluoropyrrolidin-1-yl)carbonyl]-5,6,7,8-tetrahydro[1,2,4]triazolo[4,3-a]pyridin-3(2H)-one], the IC50 stood at 16 nM.
In the case of `O=C(C1CCCc2nn(Cc3cc(Cl)cc(Cl)c3)c(=O)n21)N1CCCC1` (racemic) [Example 81, (5RS)-2-(3,5-Dichlorobenzyl)-5-(pyrrolidin-1-ylcarbonyl)-5,6,7,8-tetrahydro[1,2,4]triazolo[4,3-a]pyridin-3(2H)-one], the half-maximal inhibitory concentration (IC50) worked out at 0.84 nM.
The result for `O=C(C1CCCc2nn(Cc3cc(Cl)cc(Cl)c3)c(=O)n21)N1CCC(F)(F)C1` (racemic) [Example 82, (5RS)-2-(3,5-Dichlorobenzyl)-5-[(3,3-difluoropyrrolidin-1-yl)carbonyl]-5,6,7,8-tetrahydro[1,2,4]triazolo[4,3-a]pyridin-3(2H)-one] reads 1.75 nM; that for `O=C(C1CCCc2nn(Cc3ccc(F)c(F)c3)c(=O)n21)N1CCC(F)(F)C1` (racemic) [Example 83, (5RS)-2-(3,4-Difluorobenzyl)-5-[(3,3-difluoropyrrolidin-1-yl)carbonyl]-5,6,7,8-tetrahydro[1,2,4]triazolo[4,3-a]pyridin-3(2H)-one], 2.1 nM; that for `O=C(C1CCCc2nn(Cc3ccc(C(F)(F)F)nc3)c(=O)n21)N1CCCC1` (racemic) [Example 84, (5RS)-5-(Pyrrolidin-1-ylcarbonyl)-2-{[6-(trifluoromethyl)pyridin-3-yl]methyl}-5,6,7,8-tetrahydro[1,2,4]triazolo[4,3-a]pyridin-3(2H)-one], 5.7 nM.
The same measure for `O=C(C1CCCc2nn(Cc3ccc(F)c(Cl)c3)c(=O)n21)N1CCC(F)(F)C1` (racemic) [Example 86, (5RS)-2-(3-Chloro-4-fluorobenzyl)-5-[(3,3-difluoropyrrolidin-1-yl)carbonyl]-5,6,7,8-tetrahydro[1,2,4]triazolo[4,3-a]pyridin-3(2H)-one]: 1 nM; for `O=C(C1CCCc2nn(Cc3ccc4c(c3)CCCC4)c(=O)n21)N1CCC(F)(F)C1` (racemic) [Example 87, (5RS)-5-[(3,3-Difluoropyrrolidin-1-yl)carbonyl]-2-(5,6,7,8-tetrahydronaphthalen-2-ylmethyl)-5,6,7,8-tetrahydro[1,2,4]triazolo[4,3-a]pyridin-3(2H)-one]: 1.17 nM.
Regarding `O=C(C1CCCc2nn(Cc3ccc4c(c3)CCCC4)c(=O)n21)N1CCCC1` (racemic) [Example 88, (5RS)-5-(Pyrrolidin-1-ylcarbonyl)-2-(5,6,7,8-tetrahydronaphthalen-2-ylmethyl)-5,6,7,8-tetrahydro[1,2,4]triazolo[4,3-a]pyridin-3(2H)-one], the IC50 was found to be 0.27 nM.
The result for `O=C(C1CCCc2nn(Cc3cc(F)c(F)cc3F)c(=O)n21)N1CCCC1` (racemic) [Example 89, (5RS)-5-(Pyrrolidin-1-ylcarbonyl)-2-(2,4,5-trifluorobenzyl)-5,6,7,8-tetrahydro[1,2,4]triazolo[4,3-a]pyridin-3(2H)-one] reads 1.3 nM; that for `Cn1ccc(Cn2nc3n(c2=O)C(C(=O)N2CCC(F)(F)C2)CCC3)n1` (racemic) [Example 90, (5RS)-5-[(3,3-Difluoropyrrolidin-1-yl)carbonyl]-2-[(1-methyl-1H-pyrazol-3-yl)methyl]-5,6,7,8-tetrahydro[1,2,4]triazolo[4,3-a]pyridin-3(2H)-one], 9.8 nM; that for `O=C(C1CCCc2nn(Cc3cc(F)c(F)cc3F)c(=O)n21)N1CCC(F)(F)C1` (racemic) [Example 91, (5RS)-5-[(3,3-Difluoropyrrolidin-1-yl)carbonyl]-2-(2,4,5-trifluorobenzyl)-5,6,7,8-tetrahydro[1,2,4]triazolo[4,3-a]pyridin-3(2H)-one], 2.3 nM.
Turning to `COc1ccc(Cn2nc3n(c2=O)C(C(=O)N2CCCC2)CCC3)cn1` (racemic) [Example 92, (5RS)-2-[(6-Methoxypyridin-3-yl)methyl]-5-(pyrrolidin-1-ylcarbonyl)-5,6,7,8-tetrahydro[1,2,4]triazolo[4,3-a]pyridin-3(2H)-one], the IC50 stood at 3 nM.
With `O=C(C1CCCc2nn(Cc3ccc(F)c(Cl)c3)c(=O)n21)N1CC(O)C1` (racemic) [Example 95, (5RS)-2-(3-Chloro-4-fluorobenzyl)-5-[(3-hydroxyazetidin-1-yl)carbonyl]-5,6,7,8-tetrahydro[1,2,4]triazolo[4,3-a]pyridin-3(2H)-one], the IC50 is 9 nM.
Regarding `O=C(C1CCCc2nn(Cc3ccc(C(F)(F)F)nc3)c(=O)n21)N1CC(F)C1` (racemic) [Example 96, (5RS)-5-[(3-Fluoroazetidin-1-yl)carbonyl]-2-{[6-(trifluoromethyl)pyridin-3-yl]methyl}-5,6,7,8-tetrahydro[1,2,4]triazolo[4,3-a]pyridin-3(2H)-one], the IC50 is 7.4 nM.
The result for `Cc1nc(C)c(Cn2nc3n(c2=O)C(C(=O)N2CCCC2)CCC3)nc1C` (racemic) [Example 103, (5RS)-5-(Pyrrolidin-1-ylcarbonyl)-2-[(3,5,6-trimethylpyrazin-2-yl)methyl]-5,6,7,8-tetrahydro[1,2,4]triazolo[4,3-a]pyridin-3(2H)-one] reads 0.16 nM; that for `Cc1ccc(Cn2nc3n(c2=O)C(C)(C(=O)N2CCCC2)CCC3)cc1` (racemic) [Example 105, 5(RS)-5-Methyl-2-(4-methylbenzyl)-5-(pyrrolidin-1-ylcarbonyl)-5,6,7,8-tetrahydro[1,2,4]triazolo[4,3-a]pyridin-3(2H)-one], 10.5 nM.
With `Cc1ccc(Cn2nc3n(c2=O)C(C(=O)N2CC(F)C2)CCC3)cc1` (racemic) [Example 112, (5RS)-5-[(3-Fluoroazetidin-1-yl)carbonyl]-2-(4-methylbenzyl)-5,6,7,8-tetrahydro[1,2,4]triazolo[4,3-a]pyridin-3(2H)-one], the IC50 came to 1.59 nM.
